According to ChEMBL document CHEMBL4229430, “Inducing protein-protein interactions with molecular glues” (Bioorg Med Chem Lett, 2018):

Columns and labels:
[1] = Binding affinity to tobacco 14-3-3epsilon T14-3eDC mutant expressed in Escherichia coli assessed as Kd for 14-3-3epsilon binding to H+-ATPase peptide motif by surface plasmon resonance assay; set-up: species or system Nicotiana tabacum
[2] = biological target: T1, 14-3-3 protein zeta/delta (Homo sapiens, UniProt P63104); assay: Binding affinity to human GST-tagged 14-3-3zeta expressed in Escherichia coli assessed as Kd for 14-3-3zeta binding to H+-ATPase peptide motif by isothermal titration calorimetric method
T1 sequence (P63104 whole entry): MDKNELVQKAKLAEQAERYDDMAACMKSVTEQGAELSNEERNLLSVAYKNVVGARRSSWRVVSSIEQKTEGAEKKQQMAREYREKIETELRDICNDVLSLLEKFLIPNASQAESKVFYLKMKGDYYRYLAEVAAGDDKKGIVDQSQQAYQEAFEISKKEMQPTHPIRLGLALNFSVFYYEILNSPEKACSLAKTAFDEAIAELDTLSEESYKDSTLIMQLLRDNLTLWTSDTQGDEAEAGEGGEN

SMILES | Kd [1] [nM] | Kd [2] [nM]
O=C(C1=C(O)C(=O)N(c2ccc(O)c(C(=O)O)c2)C1c1ccc([N+](=O)[O-])cc1)c1ccccc1 (stereo not drawn) | 80000 | –
C=CC(C)(C)OC[C@H]1O[C@H](O[C@@H]2C3=C([C@H](C)COC(C)=O)C[C@H](O)[C@]3(C)/C=C3/[C@@H](COC)CC[C@H]3[C@@H](C)[C@H]2O)[C@H](O)[C@@H](OC(C)=O)[C@@H]1O | – | 700
CC(C)CC(NC(=O)[C@H](O)[C@H](N)Cc1ccccc1)C(=O)O (stereo partly drawn) | 1800 | –
